# In patent publication US20190008918A1, “IMMUNOMODULATION THERAPIES FOR CANCER” (BIOXCEL CORPORATION, priority 2016, published 2019):
# How the values were obtained:
# [1] = test system: MC38 mouse colon cancer cell line; assay: Antitumor efficacy in MC38 mouse model of colon adenocarcinoma (tumor volume, % TGI); assay type: in vivo, mouse (C57BL/6); details: day 10, Mifamurtide 30 μg biw and/or PD-1 antagonist 5 mg/kg biw
# From the text: Six to seven-week-old female C57BL/6 mice (20±4 g weight) were used in the studies. Mice received food and water ad libitum. The study protocol, the procedures involving the care and use of animals were reviewed and approved by the Institutional Animal Care and Use Committee (IACUC) to ensure compliance with the regulations of the Association for Assessment and Accreditation of Laboratory Animal Care (AAALAC).
# (§1) DMEM medium (Cat. No.: 11960-044). Glutamax™ (Cat. No.: 35050061), Trypsin-EDTA (0.25%) (Cat. No.: 25200-056), Penicillin-Streptomycin (Cat. No.: 15070-063), Hanks' Balanced Salt solution (Cat. No.: 14175-095) were procured form Gibco, while Fetal Bovine Serum (FBS) Cat. No.: 004-001-1A was purchased from Biological Industries. PD-1 antagonist (Cat. No.: BE0146) was supplied by BioXcell. Stock solutions of PD-1 antagonist at 1 mg/ml were kept at 4° C. prior to use. Dosing solutions of PD-1 antagonist were prepared freshly before every administration in sterile phosphate buffered saline (pH 7.0) and maintained at 4° C. The test article Mifamurtide was procured from Sigma (SML0195) and prepared freshly as a working solution at concentration of 300 μg/ml and 100 μg/ml in sterile phosphate buffered saline (pH 7.0), to be administered at a total dose of 30 μg (corresponds to 1.5 mg/kg in mice) and 10 μg (corresponds to 0.5 mg/kg in mice) respectively, into the animal as indicated in Table 1. Luminex assay kit: MCYTOMAG-70K-32 was commercially available from Millipore, was used to analyze the cytokines and chemokines in the serum samples.
# MC38 mouse colon cancer cell line as provided by GenScript were maintained as monolayer culture in DMEM supplemented with 10% fetal bovine serum (FBS), 1% Glutamax™ and 1% Penicillin-Streptomycin at 37° C. in an atmosphere with 5% CO2. The cells were routinely sub-cultured every 2 days to maintain growth at exponential phase. The tumor cells growing in exponential growth phase were harvested by trypsinization, followed by centrifugation at 335×g relative centrifugal force (RCF) in a centrifuge. The supernatant was subsequently removed by aspiration. Cell pellet was re-suspended in approximately 10× volume of cell culture medium and counted. The cell suspension was centrifuged again and processed as above and finally re-suspended in HBSS at a density of 1×10^7 cells per ml. Cell viability was determined to be ≥95% by trypan blue staining. […]
# Tumor size and body weights were measured twice weekly.
# Tumor size was measured twice per week in 2 dimensions using a caliper (recorded up to one decimal point). Tumor volume, expressed in mm^3, was calculated using the following formula, in which “a” and “b” were the long and the short diameters of a tumor, respectively. […]
# [2] = test system: cytokines (IFN-γ, IL-6, IL-12p40, and TNF-α) and chemokines (MCP-1 and MIP-2); assay: Luminex analysis of serum cytokines and chemokines in MC38 tumor bearing mice; assay type: in vivo, mouse (C57BL/6)
# Procedure: as §1
# The immuno-modulatory effect of Mifamurtide at dose of 30 μg (b.i.w.) in the presence and absence of PD-1 antagonist at dose 5 mg/kg (b.i.w.) was also analysed. Luminex analysis was done to check the levels of cytokines (IFN-γ, IL-6, IL-12p40, and TNF-α) and chemokines (MCP-1 and MIP-2). […] Although all Mifamurtide doses and combinations were tolerated with no early death and sustained effect on body weight (data not shown).
# [3] = post (8 hours) vs pre, Mifamurtide 30 μg and/or PD-1 antagonist 5 mg/kg
# [4] = post (Day 11) vs pre, Mifamurtide 30 μg and/or PD-1 antagonist 5 mg/kg
# [5] = serum, 8 hours post dose, Mifamurtide 30 μg and/or PD-1 antagonist 5 mg/kg
# [6] = serum, Day 11, Mifamurtide 30 μg and/or PD-1 antagonist 5 mg/kg
# [7] = serum, before dosing, Mifamurtide 30 μg and/or PD-1 antagonist 5 mg/kg group
substance,measurement,setting,value
Mifamurtide,TGI % & SEM (with ref. to Mifamurtide),[1],0.00%
same,TGI % (±SEM) (with ref. to PD-1 Antagonist),[1],−39.48%
same,TGI % (±SEM) (with ref. to vehicle),[1],−8.36%
same,Tumor volume (mm^3) (±SEM),"[1]; mean, i.p.",2791.64 mm^3
same,"IFN gamma, Fold change",[2]; [3],0.0
same,"IL-6, Fold change",[2]; [3],10.85
same,"MCP-1, Fold change",[2]; [3],1.5
same,"TNF-alpha, Fold change",[2]; [3],1.6
same,"IL-12p40, Fold change",[2]; [4],1.0
same,"MIP-2, Fold change",[2]; [4],0.7
same,"IFN gamma, Post (8 hours)",[2]; [5],0 picogram/ml
same,"IL-6, Post (8 hours)",[2]; [5],14.43 picogram/ml
same,"MCP-1, Post (8 hours)",[2]; [5],23.54 picogram/ml
same,"TNF-alpha, Post (8 hours)",[2]; [5],3.33 picogram/ml
same,"IL-12p40, Post (Day 11)",[2]; [6],1.55 picogram/ml
same,"MIP-2, Post (Day 11)",[2]; [6],13.67 picogram/ml
same,"IFN gamma, Pre",[2]; [7],0 picogram/ml
same,"IL-6, Pre",[2]; [7],1.33 picogram/ml
same,"IL-12p40, Pre",[2]; [7],1.55 picogram/ml
same,"MCP-1, Pre",[2]; [7],15.9 picogram/ml
same,"MIP-2, Pre",[2]; [7],20.84 picogram/ml
same,"TNF-alpha, Pre",[2]; [7],2.13 picogram/ml
